*1 amine or outer side, *2 acyl side, *3 side chain or, on linkers, in order; H or OH if unused. Where a SMILES comes first, the peptide text is derived from it. Side-chain parts run from the residue outwards. [ ]: non-standard residue; d: D form. The star is where a group is joined. X12 = CCCCCCCCCCCCCCCC(=O)N[C@@H](CCC(=O)N[C@@H](CCC(=O)N[C@@H](CCC(=O)NCCCC[C@H](NC(=O)COCC(=O)NCCCOCCOCCOCCCNC(=O)COCC(=O)NCCCOCCOCCOCCCN*)C(N)=O)C(=O)O)C(=O)O)C(=O)O; PEG12 = NCCOCCOCCOCCOCCOCCOCCOCCOCCOCCOCCOCCOCCC(=O)O; γGlu = O=C(O)[C@H](CCC(=O)[*:2])N[*:1]; Stearoyl = CCCCCCCCCCCCCCCCCC(=O)*; Palmitoyl = CCCCCCCCCCCCCCCC(=O)*; αMeK = C[C@](N)(CCCCN)C(=O)O; Nle = CCCC[C@H](N)C(=O)O; AEEA = NCCOCCOCC(=O)O; Aib = CC(C)(N)C(=O)O
Biological target: T1, RXFP1 (Homo sapiens, UniProt Q9HBX9)
T1 construct: OVCAR5 cells expressing endogenous RXFP1; endogenous in cells; host or cells: OVCAR5 cells
T1 sequence (Q9HBX9 1-757): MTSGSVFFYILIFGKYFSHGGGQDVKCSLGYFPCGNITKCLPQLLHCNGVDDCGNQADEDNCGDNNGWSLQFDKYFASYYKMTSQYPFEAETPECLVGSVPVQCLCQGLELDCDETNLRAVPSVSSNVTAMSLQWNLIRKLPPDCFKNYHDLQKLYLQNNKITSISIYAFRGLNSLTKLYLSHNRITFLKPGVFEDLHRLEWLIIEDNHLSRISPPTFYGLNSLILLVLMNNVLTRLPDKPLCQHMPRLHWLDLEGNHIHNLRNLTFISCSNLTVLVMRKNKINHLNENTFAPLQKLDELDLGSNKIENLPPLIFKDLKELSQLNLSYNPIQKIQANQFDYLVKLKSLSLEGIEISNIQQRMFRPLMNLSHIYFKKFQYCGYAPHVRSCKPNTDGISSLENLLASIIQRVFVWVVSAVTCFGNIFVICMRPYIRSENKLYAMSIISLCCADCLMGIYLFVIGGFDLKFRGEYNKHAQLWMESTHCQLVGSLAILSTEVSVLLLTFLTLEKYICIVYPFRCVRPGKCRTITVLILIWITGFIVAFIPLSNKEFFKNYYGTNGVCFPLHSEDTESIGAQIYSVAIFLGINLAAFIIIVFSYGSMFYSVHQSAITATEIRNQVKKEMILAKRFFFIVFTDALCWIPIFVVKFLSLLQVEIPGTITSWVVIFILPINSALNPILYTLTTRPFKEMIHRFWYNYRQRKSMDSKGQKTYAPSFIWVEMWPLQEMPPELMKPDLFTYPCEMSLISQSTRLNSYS
Assay: OVCAR5 cAMP assay (HTRF), RXFP1 agonist activity
Format: cell-based
Conditions: for Emax: OVCAR-5, maximal cAMP relative to H2-relaxin maximum (100%), read-out: EMax, OVCAR 5 cells (cAMP); for EC50: OVCAR5 cells, cAMP HTRF, read-out: EC50 (nM), OVCAR 5 cells (cAMP)
Summary of the method: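 OVCAR5 cells (endogenous RXFP1) pretreated 40 min at 37° C with 1 mM IBMX, then exposed to peptides in serum-free medium for 30 min at 37° C. Lysate cAMP read by HTRF; EC50 from variable-slope sigmoidal fit; Emax as % of H2-relaxin maximal cAMP in same run.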

Row | SMILES | Emax | EC50
1 | CCCCCCCCCCCCCCCC(=O)NCCOCCOCC(=O)NCCCC[C@H](NC(=O)[C@H](CCCCN)NC(=O)[C@H](CCCNC(=N)N)NC(=O)C(C)(C)NC(=O)[C@H](CO)NC(=O)[C@H](Cc1c[nH]c2ccccc12)NC(=O)[C@@H](NC(=O)[C@H](CO)NC(=O)[C@H](CCCC)NC(=O)CNC(=O)[C@H](CCC(=O)O)NC(=O)C(C)(C)NC(=O)C(C)(C)NC(=O)[C@@H](NC(=O)[C@H](CCC(N)=O)NC(=O)[C@H](C)NC(=O)[C@H](CCCNC(=N)N)NC(=O)[C@@H](NC(=O)[C@H](CCCCN)NC(=O)[C@H](CCC(=O)O)NC(=O)[C@H](CCCNC(=N)N)NC(=O)CNC(=O)[C@H](CCC(=O)O)NC(=O)[C@H](CC(C)C)NC(C)=O)C(C)C)[C@@H](C)CC)[C@@H](C)O)C(N)=O [compound 50] (Ac-LEGREKVRAQI[Aib][Aib]EG[Nle]STWS[Aib]RKK([AEEA-Palmitoyl])-NH2) | 95% | 
2 | CCCCCCCCCCCCCCCCCC(=O)NCCOCCOCC(=O)N[C@@H](CCC(=O)N[C@@H](CCC(=O)N[C@@H](CCC(=O)NCCOCCOCC(=O)NCCOCCOCC(=O)NCCCC[C@H](NC(=O)[C@H](CCCCN)NC(=O)[C@H](CCCCN)NC(=O)[C@H](CCCNC(=N)N)NC(=O)C(C)(C)NC(=O)[C@H](CO)NC(=O)[C@H](Cc1c[nH]c2ccccc12)NC(=O)[C@@H](NC(=O)[C@H](CO)NC(=O)[C@H](CCCC)NC(=O)CNC(=O)[C@H](CCC(=O)O)NC(=O)C(C)(C)NC(=O)C(C)(C)NC(=O)[C@@H](NC(=O)[C@H](CCC(N)=O)NC(=O)[C@H](C)NC(=O)[C@H](CCCNC(=N)N)NC(=O)[C@@H](NC(=O)[C@H](CCCCN)NC(=O)[C@H](CCC(=O)O)NC(=O)[C@H](CCCNC(=N)N)NC(=O)CNC(=O)[C@H](CCC(=O)O)NC(=O)[C@H](CC(C)C)NC(C)=O)C(C)C)[C@@H](C)CC)[C@@H](C)O)C(N)=O)C(=O)O)C(=O)O)C(=O)O [compound 98] (Ac-LEGREKVRAQI[Aib][Aib]EG[Nle]STWS[Aib]RKKK([AEEA-AEEA-γGlu-γGlu-γGlu-AEEA-Stearoyl])-NH2) | 99% | 
3 | CCCCCCCCCCCCCCCCCC(=O)N[C@@H](CCC(=O)N[C@@H](CCC(=O)N[C@@H](CCC(=O)NCCCC[C@H](NC(=O)CCOCCOCCOCCOCCOCCOCCOCCOCCOCCOCCOCCOCCNC(=O)[C@H](CCCCN)NC(=O)[C@H](CCCNC(=N)N)NC(=O)C(C)(C)NC(=O)[C@H](CO)NC(=O)[C@H](Cc1c[nH]c2ccccc12)NC(=O)[C@@H](NC(=O)[C@H](CO)NC(=O)[C@H](CCSC)NC(=O)CNC(=O)[C@H](CCC(=O)O)NC(=O)C(C)(C)NC(=O)C(C)(C)NC(=O)[C@@H](NC(=O)[C@H](CCCCNC(C)=O)NC(=O)[C@H](C)NC(=O)[C@H](CCCNC(=N)N)NC(=O)[C@@H](NC(=O)[C@H](CCCCN)NC(=O)[C@H](CCC(=O)O)NC(=O)[C@H](CCCNC(=N)N)NC(=O)CNC(=O)[C@H](CCC(=O)O)NC(=O)[C@H](CC(C)C)NC(C)=O)C(C)C)[C@@H](C)CC)[C@@H](C)O)C(N)=O)C(=O)O)C(=O)O)C(=O)O [compound 35] (Ac-LEGREKVRAK(Ac)I[Aib][Aib]EGMSTWS[Aib]RK[PEG12]K([γGlu-γGlu-γGlu-Stearoyl])-NH2) | 95% | 
4 | CCCCCCCCCCCCCCCC(=O)N[C@@H](CCC(=O)N[C@@H](CCC(=O)N[C@@H](CCC(=O)N[C@@H](CCC(=O)NCCOCCOCC(=O)NCCOCCOCC(=O)NCCOCCOCC(=O)NCCCC[C@H](NC(=O)[C@H](CCCCNC(C)=O)NC(=O)[C@H](CCCCN)NC(=O)[C@H](CCCNC(=N)N)NC(=O)[C@](C)(CCCCN)NC(=O)[C@H](CO)NC(=O)[C@H](Cc1c[nH]c2ccccc12)NC(=O)[C@@H](NC(=O)[C@H](CO)NC(=O)[C@H](CCCC)NC(=O)CNC(=O)[C@H](CCC(=O)O)NC(=O)C(C)(C)NC(=O)C(C)(C)NC(=O)[C@@H](NC(=O)[C@H](CCCCNC(C)=O)NC(=O)[C@H](C)NC(=O)[C@H](CCCNC(=N)N)NC(=O)[C@@H](NC(=O)[C@H](CCCCN)NC(=O)[C@H](CCC(=O)O)NC(=O)[C@H](CCCNC(=N)N)NC(=O)CNC(=O)[C@H](CCC(=O)O)NC(=O)[C@H](CC(C)C)NC(C)=O)C(C)C)[C@@H](C)CC)[C@@H](C)O)C(N)=O)C(=O)O)C(=O)O)C(=O)O)C(=O)O [compound 65] (Ac-LEGREKVRAK(Ac)I[Aib][Aib]EG[Nle]STWS[αMeK]RKK(Ac)K([AEEA-AEEA-AEEA-γGlu-γGlu-γGlu-γGlu-Palmitoyl])-NH2) | 93% | 0.12 nM
5 | CCCCCCCCCCCCCCCCCC(=O)N[C@@H](CCC(=O)N[C@@H](CCC(=O)N[C@@H](CCC(=O)NCCOCCOCC(=O)NCCOCCOCC(=O)NCCOCCOCC(=O)NCCCC[C@H](NC(=O)[C@H](CCCCN)NC(=O)[C@H](CCCCN)NC(=O)[C@H](CCCNC(=N)N)NC(=O)C(C)(C)NC(=O)[C@H](CO)NC(=O)[C@H](Cc1c[nH]c2ccccc12)NC(=O)[C@@H](NC(=O)[C@H](CO)NC(=O)[C@H](CCCC)NC(=O)CNC(=O)[C@H](CCC(=O)O)NC(=O)C(C)(C)NC(=O)C(C)(C)NC(=O)[C@@H](NC(=O)[C@H](CCC(N)=O)NC(=O)[C@H](CC(C)C)NC(=O)[C@H](CCCNC(=N)N)NC(=O)[C@@H](NC(=O)[C@H](CCCCN)NC(=O)[C@H](CCC(=O)O)NC(=O)[C@H](CCCNC(=N)N)NC(=O)CNC(=O)[C@H](CCC(=O)O)NC(=O)[C@H](CC(C)C)NC(C)=O)C(C)C)[C@@H](C)CC)[C@@H](C)O)C(N)=O)C(=O)O)C(=O)O)C(=O)O [compound 77] (Ac-LEGREKVRLQI[Aib][Aib]EG[Nle]STWS[Aib]RKKK([AEEA-AEEA-AEEA-γGlu-γGlu-γGlu-Stearoyl])-NH2) | 92% | 
6 | CCCCCCCCCCCCCCCC(=O)N[C@@H](CCC(=O)N[C@@H](CCC(=O)N[C@@H](CCC(=O)NCCCC[C@H](NC(=O)COCC(=O)NCCCOCCOCCOCCCNC(=O)COCC(=O)NCCCOCCOCCOCCCNC(=O)[C@H](CCCCNC(C)=O)NC(=O)[C@H](CCCCN)NC(=O)[C@H](CCCNC(=N)N)NC(=O)C(C)(C)NC(=O)[C@H](CO)NC(=O)[C@H](Cc1c[nH]c2ccccc12)NC(=O)[C@@H](NC(=O)[C@H](CO)NC(=O)[C@H](CCC(N)=O)NC(=O)CNC(=O)[C@H](CCC(=O)O)NC(=O)C(C)(C)NC(=O)C(C)(C)NC(=O)[C@@H](NC(=O)[C@H](CCC(N)=O)NC(=O)[C@H](C)NC(=O)[C@H](CCCNC(=N)N)NC(=O)[C@@H](NC(=O)[C@H](CCCCN)NC(=O)[C@H](CCC(=O)O)NC(=O)[C@H](CCCNC(=N)N)NC(=O)CNC(=O)[C@H](CCC(=O)O)NC(=O)[C@H](CC(C)C)NC(C)=O)C(C)C)[C@@H](C)CC)[C@@H](C)O)C(N)=O)C(=O)O)C(=O)O)C(=O)O [compound 177] (Ac-LEGREKVRAQI[Aib][Aib]EGQSTWS[Aib]RKK(Ac)-X12) | 91% | 
7 | CCCCCCCCCCCCCCCCCC(=O)N[C@@H](CCC(=O)N[C@@H](CCC(=O)N[C@@H](CCC(=O)N[C@@H](CCC(=O)NCCOCCOCC(=O)NCCOCCOCC(=O)NCCOCCOCC(=O)NCCCC[C@H](NC(=O)[C@H](CCCCNC(C)=O)NC(=O)[C@H](CCCCN)NC(=O)[C@H](CCCNC(=N)N)NC(=O)C(C)(C)NC(=O)[C@H](CO)NC(=O)[C@H](Cc1c[nH]c2ccccc12)NC(=O)[C@@H](NC(=O)[C@H](CO)NC(=O)[C@H](CCCC)NC(=O)CNC(=O)[C@H](CCC(=O)O)NC(=O)C(C)(C)NC(=O)C(C)(C)NC(=O)[C@@H](NC(=O)[C@H](CCCCNC(C)=O)NC(=O)[C@H](C)NC(=O)[C@H](CCCNC(=N)N)NC(=O)[C@@H](NC(=O)[C@H](CCCCN)NC(=O)[C@H](CCC(=O)O)NC(=O)[C@H](CCCNC(=N)N)NC(=O)CNC(=O)[C@H](CCC(=O)O)NC(=O)[C@H](CC(C)C)NC(C)=O)C(C)C)[C@@H](C)CC)[C@@H](C)O)C(N)=O)C(=O)O)C(=O)O)C(=O)O)C(=O)O [compound 128] (Ac-LEGREKVRAK(Ac)I[Aib][Aib]EG[Nle]STWS[Aib]RKK(Ac)K([AEEA-AEEA-AEEA-γGlu-γGlu-γGlu-γGlu-Stearoyl])-NH2) | 91% | 0.22 nM
8 | CCCCCCCCCCCCCCCCCC(=O)N[C@@H](CCC(=O)N[C@@H](CCC(=O)N[C@@H](CCC(=O)NCCOCCOCC(=O)NCCOCCOCC(=O)NCCOCCOCC(=O)NCCOCCOCC(=O)NCCCC[C@H](NC(=O)[C@H](CCCCN)NC(=O)[C@H](CCCCN)NC(=O)[C@H](CCCNC(=N)N)NC(=O)C(C)(C)NC(=O)[C@H](CO)NC(=O)[C@H](Cc1c[nH]c2ccccc12)NC(=O)[C@@H](NC(=O)[C@H](CO)NC(=O)[C@H](CCCC)NC(=O)CNC(=O)[C@H](CCC(=O)O)NC(=O)C(C)(C)NC(=O)C(C)(C)NC(=O)[C@@H](NC(=O)[C@H](CCC(N)=O)NC(=O)[C@H](C)NC(=O)[C@H](CCCNC(=N)N)NC(=O)[C@@H](NC(=O)[C@H](CCCCN)NC(=O)[C@H](CCC(=O)O)NC(=O)[C@H](CCCNC(=N)N)NC(=O)CNC(=O)[C@H](CCC(=O)O)NC(=O)[C@H](CC(C)C)NC(C)=O)C(C)C)[C@@H](C)CC)[C@@H](C)O)C(N)=O)C(=O)O)C(=O)O)C(=O)O [compound 92] (Ac-LEGREKVRAQI[Aib][Aib]EG[Nle]STWS[Aib]RKKK([AEEA-AEEA-AEEA-AEEA-γGlu-γGlu-γGlu-Stearoyl])-NH2) | 82% | 0.26 nM
